Columns and labels:
Type in all cases: physicochemical
[1] = Aqueous solubility (stated in the description); conditions: water
[2] = One hour kinetic solubility in acetic acid/sodium acetate ion mixtures; conditions: 25 °C, thermodynamic from solid
[3] = pH solubility profile: one hour and three hour kinetic solubility in USP buffers at 0.05 M; conditions: aqueous buffer, thermodynamic from solid; for solubility at 1 h / solubility at 3 h: USP buffer 0.05 M, 25° C.
[4] = One hour kinetic solubility in L-arginine mixtures; conditions: 25 °C, aqueous buffer, thermodynamic from solid
[5] = One hour kinetic solubility in histidine mixtures; conditions: USP buffer with histidine, 25 °C, aqueous buffer, thermodynamic from solid
[6] = One hour kinetic solubility in citric acid/sodium citrate ion mixtures; conditions: 25 °C, aqueous buffer, thermodynamic from solid
[7] = One hour kinetic solubility in DL arginine mixtures; conditions: 25 °C, aqueous buffer, thermodynamic from solid

**Q.** For CC(=O)[O-].CCO/N=C(\C(=O)N[C@@H]1C(=O)N2C(C(=O)O)=C(Sc3nc(-c4cc[n+](C)cc4)cs3)CS[C@H]12)c1nsc(NP(=O)(O)O)n1.O [ceftaroline fosamil, (6R,7R)-7-[[2(Z)-ethoxyimino-[5-(phosphonoamino)-1,2,4-thiadiazol-3-yl]acetyl]amino]-3-[[4-(1-methyl-pyridinium-4-yl)thiazol-2-yl]sulfanyl]-8-oxo-5-thia-1-azabicyclo[4.2.0]oct-2-en-2-carboxylate monoacetate monohydrate], which solubility [1] is on record?
**A.** ~36 mg/mL

**Q.** And the solubility at 1 h ([2]; USP buffer with acetic acid/sodium acetate, pH 2.9, aqueous buffer, pH 2.9, acetic acid/sodium acetate 1.0 M, 25° C., read-out: Solubility at 1 hr)?
**A.** 213 mg/mL

**Q.** And the solubility at 1 h ([2]; USP buffer with acetic acid/sodium acetate, pH 3.1, aqueous buffer, pH 3.1, acetic acid/sodium acetate 0.5 M, 25° C., read-out: Solubility at 1 hr)?
**A.** 126 mg/mL

**Q.** What about the solubility at 1 h ([2]; USP buffer with acetic acid/sodium acetate, pH 3.2, aqueous buffer, pH 3.2, acetic acid/sodium acetate 2.0 M, 25° C., read-out: Solubility at 1 hr) of the same compound?
**A.** 152 mg/mL

**Q.** What about the solubility at 1 h ([2]; USP buffer with acetic acid/sodium acetate, pH 3.9, aqueous buffer, pH 3.9, acetic acid/sodium acetate 1.0 M, 25° C., read-out: Solubility at 1 hr) of the same compound?
**A.** 237 mg/mL

**Q.** What about the solubility at 1 h ([2]; USP buffer with acetic acid/sodium acetate, pH 3.9, aqueous buffer, pH 3.9, acetic acid/sodium acetate 2.0 M, 25° C., read-out: Solubility at 1 hr) of the same compound?
**A.** 273 mg/mL

**Q.** What about the solubility at 1 h ([2]; USP buffer with acetic acid/sodium acetate, pH 4.2, aqueous buffer, pH 4.2, acetic acid/sodium acetate 0.5 M, 25° C., read-out: Solubility at 1 hr) of the same compound?
**A.** 158 mg/mL

**Q.** What about the solubility at 1 h ([2]; USP buffer with acetic acid/sodium acetate, pH 4.7, aqueous buffer, pH 4.7, acetic acid/sodium acetate 2.0 M, 25° C., read-out: Solubility at 1 hr) of the same compound?
**A.** 271 mg/mL

**Q.** And the solubility at 1 h ([2]; USP buffer with acetic acid/sodium acetate, pH 4.8, aqueous buffer, pH 4.8, acetic acid/sodium acetate 1.0 M, 25° C., read-out: Solubility at 1 hr)?
**A.** 235 mg/mL

**Q.** And the solubility at 1 h ([2]; USP buffer with acetic acid/sodium acetate, pH 5.7, aqueous buffer, pH 5.7, acetic acid/sodium acetate 1.0 M, 25° C., read-out: Solubility at 1 hr)?
**A.** 212 mg/mL

**Q.** What about the solubility at 1 h ([2]; USP buffer with acetic acid/sodium acetate, pH 5.9, aqueous buffer, pH 5.9, acetic acid/sodium acetate 2.0 M, 25° C., read-out: Solubility at 1 hr) of the same compound?
**A.** 244 mg/mL

**Q.** What about the solubility at 1 h ([2]; USP buffer with acetic acid/sodium acetate, pH 6.9, aqueous buffer, pH 6.9, acetic acid/sodium acetate 1.0 M, 25° C., read-out: Solubility at 1 hr) of the same compound?
**A.** 207 mg/mL

**Q.** And the solubility at 1 h ([2]; USP buffer with acetic acid/sodium acetate, pH 6.9, aqueous buffer, pH 6.9, acetic acid/sodium acetate 2.0 M, 25° C., read-out: Solubility at 1 hr)?
**A.** 225 mg/mL

**Q.** And the solubility at 1 h ([2]; USP buffer with acetic acid/sodium acetate, pH 7.7, aqueous buffer, pH 7.7, acetic acid/sodium acetate 1.0 M, 25° C., read-out: Solubility at 1 hr)?
**A.** 205 mg/mL

**Q.** And the solubility at 1 h ([2]; USP buffer with acetic acid/sodium acetate, pH 7.8, aqueous buffer, pH 7.8, acetic acid/sodium acetate 2.0 M, 25° C., read-out: Solubility at 1 hr)?
**A.** 212 mg/mL

**Q.** What about the solubility at 1 h ([2]; USP buffer with acetic acid/sodium acetate, pH 8.2, aqueous buffer, pH 8.2, acetic acid/sodium acetate 0.5 M, 25° C., read-out: Solubility at 1 hr) of the same compound?
**A.** 125 mg/mL

**Q.** And the solubility at 1 h ([2]; USP buffer with acetic acid/sodium acetate, pH 8.9, aqueous buffer, pH 8.9, acetic acid/sodium acetate 0.5 M, 25° C., read-out: Solubility at 1 hr)?
**A.** 50 mg/mL

**Q.** What about the solubility at 1 h ([2]; USP buffer with acetic acid/sodium acetate, pH 8.9, aqueous buffer, pH 8.9, acetic acid/sodium acetate 1.0 M, 25° C., read-out: Solubility at 1 hr) of the same compound?
**A.** 102 mg/mL

**Q.** And the solubility at 1 h ([2]; USP buffer with acetic acid/sodium acetate, pH 9, aqueous buffer, pH 9.0, acetic acid/sodium acetate 2.0 M, 25° C., read-out: Solubility at 1 hr)?
**A.** 159 mg/mL

**Q.** And the solubility at 1 h ([2]; acetic acid/sodium acetate buffer, pH 3, aqueous buffer, pH 3.0, acetic acid/sodium acetate 0.1 M, 25° C., read-out: Solubility at 1 hr)?
**A.** 20 mg/mL

**Q.** What about the solubility at 1 h ([2]; acetic acid/sodium acetate buffer, pH 3.8, aqueous buffer, pH 3.8, acetic acid/sodium acetate 0.1 M, 25° C., read-out: Solubility at 1 hr) of the same compound?
**A.** 35 mg/mL

**Q.** What about the solubility at 1 h ([2]; acetic acid/sodium acetate buffer, pH 4.6, aqueous buffer, pH 4.6, acetic acid/sodium acetate 0.1 M, 25° C., read-out: Solubility at 1 hr) of the same compound?
**A.** 36 mg/mL

**Q.** What about the solubility at 1 h ([2]; acetic acid/sodium acetate buffer, pH 4.7, aqueous buffer, pH 4.7, acetic acid/sodium acetate 0.5 M, 25° C., read-out: Solubility at 1 hr) of the same compound?
**A.** 156 mg/mL

**Q.** What about the solubility at 1 h ([2]; acetic acid/sodium acetate buffer, pH 5.6, aqueous buffer, pH 5.6, acetic acid/sodium acetate 0.5 M, 25° C., read-out: Solubility at 1 hr) of the same compound?
**A.** 123 mg/mL

**Q.** And the solubility at 1 h ([2]; acetic acid/sodium acetate buffer, pH 6, aqueous buffer, pH 6.0, acetic acid/sodium acetate 0.1 M, 25° C., read-out: Solubility at 1 hr)?
**A.** 36 mg/mL

**Q.** And the solubility at 1 h ([2]; acetic acid/sodium acetate buffer, pH 6.7, aqueous buffer, pH 6.7, acetic acid/sodium acetate 0.1 M, 25° C., read-out: Solubility at 1 hr)?
**A.** 31 mg/mL

**Q.** And the solubility at 1 h ([2]; acetic acid/sodium acetate buffer, pH 6.8, aqueous buffer, pH 6.8, acetic acid/sodium acetate 0.5 M, 25° C., read-out: Solubility at 1 hr)?
**A.** 133 mg/mL

**Q.** What about the solubility at 1 h ([2]; acetic acid/sodium acetate buffer, pH 8.2, aqueous buffer, pH 8.2, acetic acid/sodium acetate 0.1 M, 25° C., read-out: Solubility at 1 hr) of the same compound?
**A.** 31 mg/mL

**Q.** What about the solubility at 1 h ([2]; acetic acid/sodium acetate buffer, pH 9.4, aqueous buffer, pH 9.4, acetic acid/sodium acetate 0.1 M, 25° C., read-out: Solubility at 1 hr) of the same compound?
**A.** 34 mg/mL

**Q.** And the solubility at 1 h ([2]; acetic acid/sodium acetate ion mixtures, aqueous buffer, at acetate concentrations of 1.0 M and higher, read-out: solubility)?
**A.** > 200 mg/mL

**Q.** And the solubility ([3]; USP buffers, 25 °C, over pH about 3 to about 8, 0.05 M)?
**A.** 25 to 36 mg/mL

**Q.** What about the solubility at 1 h ([3]; pH 1.2) of the same compound?
**A.** 6 mg/mL

**Q.** What about the solubility at 3 h ([3]; pH 1.2) of the same compound?
**A.** 6 mg/mL

**Q.** And the solubility at 1 h ([3]; pH 1.9)?
**A.** 9 mg/mL

**Q.** And the solubility at 3 h ([3]; pH 1.9)?
**A.** 9 mg/mL

**Q.** And the solubility at 1 h ([3]; pH 2.9)?
**A.** 27 mg/mL

**Q.** What about the solubility at 3 h ([3]; pH 2.9) of the same compound?
**A.** 27 mg/mL

**Q.** And the solubility at 1 h ([3]; pH 3.7)?
**A.** 36 mg/mL

**Q.** What about the solubility at 3 h ([3]; pH 3.7) of the same compound?
**A.** 29 mg/mL

**Q.** And the solubility at 1 h ([3]; pH 5.3)?
**A.** 26 mg/mL

**Q.** And the solubility at 3 h ([3]; pH 5.3)?
**A.** 26 mg/mL

**Q.** What about the solubility at 1 h ([3]; pH 5.9) of the same compound?
**A.** 34 mg/mL

**Q.** What about the solubility at 3 h ([3]; pH 5.9) of the same compound?
**A.** 29 mg/mL

**Q.** And the solubility at 1 h ([3]; pH 7.3)?
**A.** 25 mg/mL

**Q.** And the solubility at 3 h ([3]; pH 7.3)?
**A.** 24 mg/mL

**Q.** What about the solubility at 1 h ([3]; pH 8.0) of the same compound?
**A.** 29 mg/mL

**Q.** What about the solubility at 3 h ([3]; pH 8.0) of the same compound?
**A.** 24 mg/mL

**Q.** What about the solubility at 1 h ([3]; pH 9.0) of the same compound?
**A.** 16 mg/mL

**Q.** What about the solubility at 3 h ([3]; pH 9.0) of the same compound?
**A.** 12 mg/mL

**Q.** What about the solubility at 1 h ([4]; L-arginine mixtures, at L-arginine concentrations of 0.5 M and higher, read-out: solubility) of the same compound?
**A.** > 200 mg/mL

**Q.** And the solubility at 1 h ([4]; USP buffer with L-arginine, L-arginine 0.05 M, 25° C., read-out: Solubility at 1 hr)?
**A.** 39 mg/mL

**Q.** And the solubility at 1 h ([4]; USP buffer with L-arginine, L-arginine 0.1 M, 25° C., read-out: Solubility at 1 hr)?
**A.** 82 mg/mL

**Q.** What about the solubility at 1 h ([4]; USP buffer with L-arginine, L-arginine 0.5 M, 25° C., read-out: Solubility at 1 hr) of the same compound?
**A.** 226 mg/mL

**Q.** What about the solubility at 1 h ([5]; histidine 0.05 M) of the same compound?
**A.** 43 mg/mL

**Q.** And the solubility at 1 h ([5]; histidine 0.1 M)?
**A.** 75 mg/mL

**Q.** And the solubility at 1 h ([6]; USP buffer with citric acid/sodium citrate, citric acid/sodium citrate 0.05 M, 25° C., read-out: Solubility at 1 hr)?
**A.** 121 mg/mL

**Q.** And the solubility at 1 h ([6]; USP buffer with citric acid/sodium citrate, citric acid/sodium citrate 0.1 M, 25° C., read-out: Solubility at 1 hr)?
**A.** 159 mg/mL

**Q.** What about the solubility at 1 h ([6]; USP buffer with citric acid/sodium citrate, citric acid/sodium citrate 0.5 M, 25° C., read-out: Solubility at 1 hr) of the same compound?
**A.** 240 mg/mL

**Q.** What about the solubility at 1 h ([6]; USP buffer with citric acid/sodium citrate, citric acid/sodium citrate 1.0 M, 25° C., read-out: Solubility at 1 hr) of the same compound?
**A.** 245 mg/mL

**Q.** What about the solubility at 1 h ([6]; citric acid/sodium citrate ion mixtures, at citrate concentrations of 0.5 M and higher, read-out: solubility) of the same compound?
**A.** > 200 mg/mL

**Q.** And the solubility at 1 h ([7]; DL arginine mixtures, at DL arginine concentrations of 1.0 M and higher, read-out: solubility)?
**A.** > 200 mg/mL

**Q.** And the solubility at 1 h ([7]; USP buffer with DL arginine, DL arginine 0.05 M, 25° C., read-out: Solubility at 1 hr)?
**A.** 13 mg/mL

**Q.** And the solubility at 1 h ([7]; USP buffer with DL arginine, DL arginine 0.1 M, 25° C., read-out: Solubility at 1 hr)?
**A.** 19 mg/mL

**Q.** And the solubility at 1 h ([7]; USP buffer with DL arginine, DL arginine 0.5 M, 25° C., read-out: Solubility at 1 hr)?
**A.** 142 mg/mL

**Q.** And the solubility at 1 h ([7]; USP buffer with DL arginine, DL arginine 1.0 M, 25° C., read-out: Solubility at 1 hr)?
**A.** 233 mg/mL

**Q.** What about the solubility at 1 h ([7]; USP buffer with DL arginine, DL arginine 2.0 M, 25° C., read-out: Solubility at 1 hr) of the same compound?
**A.** 226 mg/mL
